# Laboratory results as given in PubChem BioAssay (NCI).
#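 Assay format: 96-well plates, 48-hour exposure. At the TGI there is no net growth.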
# Assays:
# Test in all cases: NCI tumour cell line growth inhibition, 48 h
# HS 578T breast = system: HS 578T breast
# M14 melanoma = system: M14 melanoma
# HOP-62 NSCLC = system: HOP-62 NSCLC
# MDA-N = system: MDA-N
# CCRF-CEM leukemia = system: CCRF-CEM leukemia
# T-47D breast = system: T-47D breast
# OVCAR-3 ovarian = system: OVCAR-3 ovarian
# RPMI-8226 leukemia = system: RPMI-8226 leukemia
# MDA-MB-231 breast = system: MDA-MB-231 breast
# U251 CNS = system: U251 CNS
SMILES,TGI (HS 578T breast),TGI (M14 melanoma),TGI (HOP-62 NSCLC),TGI (MDA-N),TGI (CCRF-CEM leukemia),TGI (T-47D breast),TGI (OVCAR-3 ovarian),TGI (RPMI-8226 leukemia),TGI (MDA-MB-231 breast),TGI (U251 CNS)
CN(C)CCOc1ccc(I)cc1Cc1ccccc1,29.3 µM,6 µM,28.6 µM,17.4 µM,18.5 µM,16.2 µM,26.7 µM,23.9 µM,12.3 µM,27.1 µM
CC(C)Nc1[nH]c(C(=O)c2ccccc2)c(N)c1C(=S)Nc1ccccc1,> 100 µM,48.5 µM,> 100 µM,> 100 µM,> 100 µM,> 100 µM,> 100 µM,,> 100 µM,> 100 µM
Cc1cc2nc(N3C(=O)/C(=C/c4cccc([N+](=O)[O-])c4)N=C3c3ccccc3)sc2cc1C,> 100 µM,> 100 µM,> 100 µM,34.1 µM,23.4 µM,> 100 µM,> 100 µM,48.1 µM,> 100 µM,58 µM
O=C1/C(=C\c2ccc([N+](=O)[O-])cc2)Sc2scc(-c3ccc(O)c(O)c3)[n+]21,63.7 µM,27.4 µM,27.5 µM,25.6 µM,16.3 µM,54.6 µM,9.79 µM,15.2 µM,66.9 µM,20.5 µM
CNNC1=NS(=O)(=O)c2cc(C)c(Cl)cc2S1,> 10 µM,> 10 µM,> 10 µM,> 10 µM,> 10 µM,> 10 µM,> 10 µM,> 10 µM,> 10 µM,> 10 µM
O=C(O)C(Cc1ccc2c(c1)CCC2)(Cc1ccc2c(c1)CCC2)C(=O)O,> 100 µM,> 100 µM,> 100 µM,> 100 µM,> 100 µM,> 100 µM,> 100 µM,> 100 µM,> 100 µM,> 100 µM
CC[C@@H]1CN2CCC1C[C@@H]2C(O)c1ccnc2ccc(OCCN3CCN(CCOc4ccc5nccc(C(O)[C@@H]6C[C@@H]7CCN6C[C@@H]7CC)c5c4)CC3)cc12 (stereo partly drawn),46.6 µM,26.2 µM,36.2 µM,27.1 µM,15.7 µM,42.1 µM,36 µM,8.45 µM,31.3 µM,33.1 µM
CC[C@@H](CCCC[C@@H]1CC[C@H]2CC(=O)C[C@@H]12)OC,> 100 µM,> 100 µM,> 100 µM,> 100 µM,> 100 µM,> 100 µM,> 100 µM,> 100 µM,> 100 µM,> 100 µM
COc1ccc(NC(=O)CC(=O)n2nc(C)c(N=Nc3ccc(C)c(C)c3)c2C)cc1,97.4 µM,> 100 µM,> 100 µM,> 100 µM,> 100 µM,> 100 µM,> 100 µM,> 100 µM,> 100 µM,> 100 µM
O=C1NCC2(CCNCC2)N1c1ccccc1,> 100 µM,> 100 µM,> 100 µM,> 100 µM,> 100 µM,> 100 µM,> 100 µM,> 100 µM,> 100 µM,> 100 µM
CN1CCN(c2nc3ccccc3nc2C(=O)c2ccc(Cl)cc2)CC1,> 100 µM,62.8 µM,> 100 µM,> 100 µM,> 100 µM,> 100 µM,> 100 µM,77.4 µM,,> 100 µM
COc1ccc2c(c1)c1nn(CCN(C)C)c3ccc4c(=O)n(CCN(C)C)c(=O)n2c4c13,0.244 µM,0.324 µM,0.217 µM,0.186 µM,0.107 µM,> 25.8 µM,0.255 µM,< 0.0192 µM,0.26 µM,1.69 µM
O=C(NCCN1C(=O)CN=C(c2ccc(Cl)cc2)c2cc(Cl)ccc21)OCc1ccccc1,40.7 µM,34.9 µM,38.2 µM,31.9 µM,63.1 µM,> 100 µM,26 µM,53.9 µM,32.3 µM,30.1 µM
CC(=O)N1c2ccccc2C(C)(C)OC1C(Cl)(Cl)Cl (stereo not drawn),> 100 µM,> 100 µM,> 100 µM,83.1 µM,> 100 µM,> 100 µM,> 100 µM,33.6 µM,> 100 µM,> 100 µM
O/N=c1/ccn(O)c2ccccc12,> 100 µM,6.87 µM,9.43 µM,17.5 µM,3.34 µM,10.3 µM,6.59 µM,0.542 µM,5.4 µM,6.65 µM
O=[N+]([O-])c1cccc(N=C2c3ccccc3CN2c2cccc([N+](=O)[O-])c2)c1,> 100 µM,> 100 µM,> 100 µM,> 100 µM,,> 100 µM,> 100 µM,> 100 µM,> 100 µM,> 100 µM
COc1ccccc1/C=C1\Sc2scc(-c3cccc([N+](=O)[O-])c3)[n+]2C1=O,> 62.6 µM,18.6 µM,27.6 µM,12.3 µM,,33.1 µM,26.7 µM,9.28 µM,19.3 µM,39.6 µM
CC(NC1=CC(=O)c2ncccc2C1=O)C(O)c1ccccc1 (stereo not drawn),25.1 µM,11 µM,25.9 µM,3 µM,> 100 µM,56 µM,16.3 µM,53.9 µM,6.94 µM,14.3 µM
CN(C)CCN1C(=O)CC[C@@]2(C)C1=CC[C@@H]1[C@@H]2CC[C@@]2(C)[C@H]1CC[C@]2(C)O,> 100 µM,> 100 µM,> 100 µM,> 100 µM,> 100 µM,> 100 µM,> 100 µM,> 100 µM,> 100 µM,> 100 µM
O=C1C(C(O)(C(F)(F)Cl)C(F)(F)Cl)CCC1C(O)(C(F)(F)Cl)C(F)(F)Cl (stereo not drawn),5.44 µM,> 10 µM,> 10 µM,> 10 µM,,> 10 µM,> 10 µM,> 10 µM,> 10 µM,> 10 µM
COC(=O)C1Cc2c([nH]c3ccccc23)C(c2cccc(O)c2)N1 (stereo not drawn),> 100 µM,47.4 µM,> 100 µM,40.1 µM,43.2 µM,> 100 µM,> 100 µM,87.3 µM,51.2 µM,> 100 µM
COC(=O)C1Cc2ccc(C)cc2C1=O (stereo not drawn),> 100 µM,> 100 µM,> 100 µM,> 100 µM,> 100 µM,> 100 µM,> 100 µM,> 100 µM,> 100 µM,> 100 µM

SMILES,TGI (HS 578T breast),TGI (M14 melanoma),TGI (HOP-62 NSCLC),TGI (MDA-N),TGI (CCRF-CEM leukemia),TGI (T-47D breast),TGI (OVCAR-3 ovarian),TGI (RPMI-8226 leukemia),TGI (MDA-MB-231 breast),TGI (U251 CNS)
N#C/C(=C1\N=C(c2ccccc2O)Oc2ccccc21)c1ccc([N+](=O)[O-])cc1,> 100 µM,> 100 µM,> 100 µM,> 100 µM,> 100 µM,> 100 µM,> 100 µM,> 100 µM,> 100 µM,> 100 µM
Cc1cc(C)c(S(=O)(=O)N[C@@H](/C=C(\Br)CO)C(C)C)c(C)c1,54.5 µM,91.3 µM,> 100 µM,69.8 µM,90.1 µM,68.4 µM,51.8 µM,54.5 µM,> 100 µM,> 100 µM
COC(=O)c1ccc2c(c1)CC1(C2)Cc2cc3c(c(C(=O)OC)c2C1)CCCC3 (stereo not drawn),> 100 µM,,> 100 µM,> 100 µM,> 100 µM,> 100 µM,> 100 µM,> 100 µM,> 100 µM,> 100 µM
CSc1c(C(=O)Nc2ccc(C)cc2)c(N)nn1-c1ccccc1,> 100 µM,> 100 µM,> 100 µM,> 100 µM,> 100 µM,> 100 µM,> 100 µM,> 100 µM,> 100 µM,> 100 µM
N#Cc1ncn(-c2ccccc2)c1N,> 100 µM,> 100 µM,> 100 µM,> 100 µM,> 100 µM,> 100 µM,> 100 µM,> 100 µM,> 100 µM,> 100 µM
Cc1cn(CC2=NCCN2)c(=O)[nH]c1=O,> 100 µM,> 100 µM,> 100 µM,> 100 µM,> 100 µM,> 100 µM,,> 100 µM,> 100 µM,> 100 µM
CSCCC(NCc1c(O)ccc2ccc(=O)oc12)C(=O)O (stereo not drawn),> 100 µM,> 100 µM,> 100 µM,> 100 µM,> 100 µM,> 100 µM,> 100 µM,> 100 µM,> 100 µM,> 100 µM
CSC(SC)=C1C(=O)NN=C1C,> 100 µM,> 100 µM,> 100 µM,> 100 µM,> 100 µM,> 100 µM,> 100 µM,> 100 µM,> 100 µM,> 100 µM
CCOC(=O)c1c(O)[nH]c(=O)c(CC)c1C,> 100 µM,> 100 µM,> 100 µM,> 100 µM,> 100 µM,> 100 µM,> 100 µM,> 100 µM,> 100 µM,> 100 µM
CC(C)(C)c1cc(C(=O)/C=C/c2ccc(O)c(O)c2O)cc(C(C)(C)C)c1O,> 45.1 µM,20.6 µM,27.8 µM,28.9 µM,7.84 µM,13.3 µM,> 100 µM,4.4 µM,36 µM,12.3 µM
Cc1ccc(-c2sc(-c3ccc(C)cc3)c3c2C2CCC3C2)cc1,> 50 µM,> 50 µM,> 50 µM,> 50 µM,> 50 µM,> 50 µM,> 50 µM,> 50 µM,> 50 µM,> 50 µM
O=[N+]([O-])c1ccc(Cl)cc1-n1nc(-c2ccccc2)cc1-c1ccccc1,> 100 µM,> 100 µM,,> 100 µM,> 100 µM,> 100 µM,> 100 µM,> 100 µM,> 100 µM,> 100 µM
Cc1ccc(/C=C2\N=C(N3CCCCC3)NC2=O)cc1,> 100 µM,> 100 µM,> 100 µM,> 100 µM,> 100 µM,> 100 µM,> 100 µM,> 100 µM,> 100 µM,> 100 µM
COc1cc([C@@H]2c3cc4c(cc3[C@H](OC3OC5COC(C(C)C)OC5C(O)C3O)C3COC(=O)[C@@H]32)OCO4)cc(OC)c1O (stereo partly drawn),42.3 µM,24.3 µM,24.4 µM,6.48 µM,> 100 µM,60.1 µM,24.4 µM,42.5 µM,28.8 µM,10.5 µM
Cc1ccc(/C=C2\CN(C)CC3C(c4ccc(C)cc4)=C(C#N)C(=O)NC23)cc1 (stereo not drawn),> 50 µM,> 50 µM,> 50 µM,> 50 µM,> 50 µM,> 50 µM,> 50 µM,> 50 µM,> 50 µM,> 50 µM
Clc1ccccc1/C=C/c1nsc(/C=C/c2ccccc2Cl)n1,> 100 µM,> 100 µM,> 100 µM,> 100 µM,> 100 µM,42.8 µM,> 100 µM,84.5 µM,> 100 µM,> 100 µM
CC(=O)OC1/C(=C/c2ccc([N+](=O)[O-])cc2)C[C@H]2[C@@H]3CC=C4C[C@@H](OC(C)=O)CC[C@]4(C)[C@H]3CC[C@]12C (stereo partly drawn),> 100 µM,> 100 µM,> 100 µM,> 100 µM,> 64.8 µM,> 100 µM,> 100 µM,> 100 µM,> 100 µM,> 100 µM
CC1=C2C(=O)O[C@@H](c3ccoc3)[C@]2(C)CCC1=O,,> 100 µM,> 100 µM,> 100 µM,> 100 µM,> 100 µM,> 100 µM,> 100 µM,> 100 µM,> 100 µM
ClC(Cl)(Cl)C1CCOC1n1nc2ccccc2n1 (stereo not drawn),> 100 µM,> 100 µM,> 100 µM,> 100 µM,> 100 µM,> 100 µM,> 100 µM,,> 100 µM,> 100 µM
N=C(/C=C/c1ccc(-c2cn3cc(/C=C/C(=N)N4CCCC4)ccc3n2)cc1)N1CCCC1,> 100 µM,> 100 µM,> 100 µM,> 100 µM,,> 100 µM,> 100 µM,> 100 µM,> 100 µM,> 100 µM
Cc1ccc(S(=O)(=O)NC(=O)NC(CO)C(=O)O)cc1 (stereo not drawn),> 100 µM,> 100 µM,> 100 µM,> 100 µM,> 100 µM,> 100 µM,,> 100 µM,> 100 µM,> 100 µM
